# Reference: publication PMC4730229, “Benzobisthiazoles Represent a Novel Scaffold for Kinase Inhibitors of CLK Family Members” (Biochemistry, 2015)
# Columns and labels:
# Test in all cases: Kinase profiling (radioactive filter binding)
# Format in all cases: biochemical
# RSK1 = RSK1 (Homo sapiens, UniProt Q15418); conditions: 1 uM compound
# Protocol: (§1) 3A5 and 5E4 were sent to the International Centre for Kinase Profiling at the MRC Protein Phosphorylation and Ubiquitylation Unit for profiling (as described in ref ([17])). Compounds were profiled against 140 kinases using a radioactive ([^33P]ATP) filter binding assay at a concentration of 1 μM. Results were obtained as inhibition of kinase activity and are listed in Supplementary Table 2.
# IKKb = IKKb (Homo sapiens, UniProt O14920); conditions: 1 uM compound
# Protocol: as §1
# ULK1 = ULK1 (Homo sapiens, UniProt O75385); conditions: 1 uM compound
# Protocol: as §1
# MARK4 = MARK4 (Homo sapiens, UniProt Q96L34); conditions: 1 uM compound
# Protocol: as §1
# SYK = SYK (Homo sapiens, UniProt P43405); conditions: 1 uM compound
# Protocol: as §1
# MARK1 = MARK1 (Homo sapiens, UniProt Q9P0L2); conditions: 1 uM compound
# Protocol: as §1
# PINK = PINK (Tribolium castaneum, UniProt D6WMX4); conditions: 1 uM compound
# Protocol: as §1
# BTK = BTK (Homo sapiens, UniProt Q06187); conditions: 1 uM compound
# Protocol: as §1
# MAPKAP-K3 = MAPKAP-K3 (Homo sapiens, UniProt Q16644); conditions: 1 uM compound
# Protocol: as §1
# PAK5 = PAK5 (Homo sapiens, UniProt Q9P286); conditions: 1 uM compound
# Protocol: as §1
# TBK1 = TBK1 (Homo sapiens, UniProt Q9UHD2); conditions: 1 uM compound
# Protocol: as §1
# SGK1 = SGK1 (Homo sapiens, UniProt O00141); conditions: 1 uM compound
# Protocol: as §1
# ERK8 = ERK8 (Homo sapiens, UniProt Q8TD08); conditions: 1 uM compound
# Protocol: as §1
# PRAK = PRAK (Homo sapiens, UniProt Q8IW41); conditions: 1 uM compound
# Protocol: as §1
# MLK1 = MLK1 (Homo sapiens, UniProt P80192); conditions: 1 uM compound
# Protocol: as §1
# EPH-A2 = EPH-A2 (Homo sapiens, UniProt P29317); conditions: 1 uM compound
# Protocol: as §1
# EPH-B1 = EPH-B1 (Homo sapiens, UniProt P54762); conditions: 1 uM compound
# Protocol: as §1
# JAK2 = JAK2 (Homo sapiens, UniProt O60674); conditions: 1 uM compound
# Protocol: as §1
# TSSK1 = TSSK1 (Homo sapiens, UniProt Q9BXA7); conditions: 1 uM compound
# Protocol: as §1
# PKCa = PKCa (Homo sapiens, UniProt P17252); conditions: 1 uM compound
# Protocol: as §1
# DAPK1 = DAPK1 (Homo sapiens, UniProt P53355); conditions: 1 uM compound
# Protocol: as §1
# NUAK1 = NUAK1 (Homo sapiens, UniProt O60285); conditions: 1 uM compound
# Protocol: as §1
# HIPK1 = HIPK1 (Homo sapiens, UniProt Q86Z02); conditions: 1 uM compound
# Protocol: as §1
# TTBK2 = TTBK2 (Homo sapiens, UniProt Q6IQ55); conditions: 1 uM compound
# Protocol: as §1
# CLK2 = CLK2 (Homo sapiens, UniProt P49760); conditions: for CLK2 activity in kinase profiling: 1 uM compound; for inhibition at 1 µM: 1 μM compound, read-out: inhibition of CLK2 in kinase panel
# Protocol: as §1
# STK33 = STK33 (Homo sapiens, UniProt Q9BYT3); conditions: 1 uM compound
# Protocol: as §1
# PKD1 = PKD1 (Homo sapiens, UniProt Q15139); conditions: 1 uM compound
# Protocol: as §1
# PIM2 = PIM2 (Homo sapiens, UniProt Q9P1W9); conditions: 1 uM compound
# Protocol: as §1
# MSK1 = MSK1 (Homo sapiens, UniProt O75582); conditions: 1 uM compound
# Protocol: as §1
# IGF-1R = IGF-1R (Homo sapiens, UniProt P08069); conditions: 1 uM compound
# Protocol: as §1
# JNK2 = JNK2 (Homo sapiens, UniProt P45984); conditions: 1 uM compound
# Protocol: as §1
# SIK2 = SIK2 (Homo sapiens, UniProt Q9H0K1); conditions: 1 uM compound
# Protocol: as §1
# EIF2AK3 = EIF2AK3 (Homo sapiens, UniProt Q9NZJ5); conditions: 1 uM compound
# Protocol: as §1
# CK1δ = CK1δ (Homo sapiens, UniProt P48730); conditions: 1 uM compound
# Protocol: as §1
# MNK2 = MNK2 (Homo sapiens, UniProt Q9HBH9); conditions: 1 uM compound
# Protocol: as §1
# Aurora A = Aurora A (Homo sapiens, UniProt O14965); conditions: 1 uM compound
# Protocol: as §1
# TrkA = TrkA (Homo sapiens, UniProt P04629); conditions: 1 uM compound
# Protocol: as §1
# S6K1 = S6K1 (Homo sapiens, UniProt P23443); conditions: 1 uM compound
# Protocol: as §1
# EPH-B2 = EPH-B2 (Homo sapiens, UniProt P29323); conditions: 1 uM compound
# Protocol: as §1
# EF2K = EF2K (Homo sapiens, UniProt O00418); conditions: 1 uM compound
# Protocol: as §1
# PKCz = PKCz (Homo sapiens, UniProt Q05513); conditions: 1 uM compound
# Protocol: as §1
# PAK6 = PAK6 (Homo sapiens, UniProt Q9NQU5); conditions: 1 uM compound
# Protocol: as §1
# CLK2, sequence (P49760 whole entry): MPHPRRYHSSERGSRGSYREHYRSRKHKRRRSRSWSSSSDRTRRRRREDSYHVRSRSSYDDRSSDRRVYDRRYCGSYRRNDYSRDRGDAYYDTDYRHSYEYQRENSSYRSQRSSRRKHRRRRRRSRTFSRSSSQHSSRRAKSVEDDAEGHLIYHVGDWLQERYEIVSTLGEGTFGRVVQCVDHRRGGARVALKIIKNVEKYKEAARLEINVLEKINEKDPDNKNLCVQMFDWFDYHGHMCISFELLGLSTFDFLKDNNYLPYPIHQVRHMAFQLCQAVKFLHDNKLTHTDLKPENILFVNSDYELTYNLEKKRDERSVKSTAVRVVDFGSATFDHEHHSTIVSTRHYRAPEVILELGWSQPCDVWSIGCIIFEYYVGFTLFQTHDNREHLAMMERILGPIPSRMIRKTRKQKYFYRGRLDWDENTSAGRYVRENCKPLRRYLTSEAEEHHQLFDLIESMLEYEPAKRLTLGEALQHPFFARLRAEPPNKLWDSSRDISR
# MAPKAP-K3, sequence (Q16644 whole entry): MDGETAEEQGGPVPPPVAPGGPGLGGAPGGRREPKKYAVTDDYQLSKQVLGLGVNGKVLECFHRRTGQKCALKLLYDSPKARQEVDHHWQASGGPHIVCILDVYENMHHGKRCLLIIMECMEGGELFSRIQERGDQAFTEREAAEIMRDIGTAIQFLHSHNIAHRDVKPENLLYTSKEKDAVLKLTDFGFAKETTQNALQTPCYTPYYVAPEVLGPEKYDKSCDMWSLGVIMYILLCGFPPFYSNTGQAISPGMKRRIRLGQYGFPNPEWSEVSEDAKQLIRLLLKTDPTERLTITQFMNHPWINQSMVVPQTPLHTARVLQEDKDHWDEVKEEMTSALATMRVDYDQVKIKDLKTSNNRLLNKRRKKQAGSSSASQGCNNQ
# TBK1, sequence (Q9UHD2 whole entry): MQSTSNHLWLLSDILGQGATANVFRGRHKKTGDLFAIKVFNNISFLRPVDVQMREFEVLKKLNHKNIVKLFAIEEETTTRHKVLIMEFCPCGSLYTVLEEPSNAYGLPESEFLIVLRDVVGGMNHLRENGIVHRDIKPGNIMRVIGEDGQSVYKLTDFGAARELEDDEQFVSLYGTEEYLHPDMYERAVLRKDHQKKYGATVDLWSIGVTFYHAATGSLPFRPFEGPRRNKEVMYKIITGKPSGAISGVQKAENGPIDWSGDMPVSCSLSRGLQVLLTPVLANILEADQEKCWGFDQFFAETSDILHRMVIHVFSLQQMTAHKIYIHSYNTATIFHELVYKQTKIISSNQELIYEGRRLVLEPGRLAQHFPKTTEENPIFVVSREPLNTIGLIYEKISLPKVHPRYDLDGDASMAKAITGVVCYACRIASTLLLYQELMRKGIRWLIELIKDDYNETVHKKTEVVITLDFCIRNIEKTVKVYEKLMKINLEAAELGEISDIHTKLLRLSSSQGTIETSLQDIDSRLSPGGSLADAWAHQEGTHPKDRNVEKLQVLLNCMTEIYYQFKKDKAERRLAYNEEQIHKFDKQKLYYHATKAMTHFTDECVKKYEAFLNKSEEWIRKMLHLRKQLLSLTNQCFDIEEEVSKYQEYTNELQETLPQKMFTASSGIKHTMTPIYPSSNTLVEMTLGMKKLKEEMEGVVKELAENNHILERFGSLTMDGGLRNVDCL
# PINK, sequence (D6WMX4 whole entry): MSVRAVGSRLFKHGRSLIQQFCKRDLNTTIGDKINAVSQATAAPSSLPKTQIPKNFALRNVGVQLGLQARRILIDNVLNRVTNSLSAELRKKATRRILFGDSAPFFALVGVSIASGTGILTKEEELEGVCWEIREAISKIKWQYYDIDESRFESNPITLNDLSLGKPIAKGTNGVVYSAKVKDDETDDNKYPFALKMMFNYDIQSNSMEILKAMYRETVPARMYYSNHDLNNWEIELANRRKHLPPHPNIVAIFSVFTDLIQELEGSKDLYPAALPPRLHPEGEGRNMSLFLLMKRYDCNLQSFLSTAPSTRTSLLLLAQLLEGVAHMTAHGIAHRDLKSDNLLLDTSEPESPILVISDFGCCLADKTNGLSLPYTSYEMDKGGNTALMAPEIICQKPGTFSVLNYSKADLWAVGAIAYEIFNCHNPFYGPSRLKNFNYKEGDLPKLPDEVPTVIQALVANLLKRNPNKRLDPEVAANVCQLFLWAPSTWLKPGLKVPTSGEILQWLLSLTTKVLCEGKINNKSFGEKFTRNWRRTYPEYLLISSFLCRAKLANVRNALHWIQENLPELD
# PKD1, sequence (Q15139 whole entry): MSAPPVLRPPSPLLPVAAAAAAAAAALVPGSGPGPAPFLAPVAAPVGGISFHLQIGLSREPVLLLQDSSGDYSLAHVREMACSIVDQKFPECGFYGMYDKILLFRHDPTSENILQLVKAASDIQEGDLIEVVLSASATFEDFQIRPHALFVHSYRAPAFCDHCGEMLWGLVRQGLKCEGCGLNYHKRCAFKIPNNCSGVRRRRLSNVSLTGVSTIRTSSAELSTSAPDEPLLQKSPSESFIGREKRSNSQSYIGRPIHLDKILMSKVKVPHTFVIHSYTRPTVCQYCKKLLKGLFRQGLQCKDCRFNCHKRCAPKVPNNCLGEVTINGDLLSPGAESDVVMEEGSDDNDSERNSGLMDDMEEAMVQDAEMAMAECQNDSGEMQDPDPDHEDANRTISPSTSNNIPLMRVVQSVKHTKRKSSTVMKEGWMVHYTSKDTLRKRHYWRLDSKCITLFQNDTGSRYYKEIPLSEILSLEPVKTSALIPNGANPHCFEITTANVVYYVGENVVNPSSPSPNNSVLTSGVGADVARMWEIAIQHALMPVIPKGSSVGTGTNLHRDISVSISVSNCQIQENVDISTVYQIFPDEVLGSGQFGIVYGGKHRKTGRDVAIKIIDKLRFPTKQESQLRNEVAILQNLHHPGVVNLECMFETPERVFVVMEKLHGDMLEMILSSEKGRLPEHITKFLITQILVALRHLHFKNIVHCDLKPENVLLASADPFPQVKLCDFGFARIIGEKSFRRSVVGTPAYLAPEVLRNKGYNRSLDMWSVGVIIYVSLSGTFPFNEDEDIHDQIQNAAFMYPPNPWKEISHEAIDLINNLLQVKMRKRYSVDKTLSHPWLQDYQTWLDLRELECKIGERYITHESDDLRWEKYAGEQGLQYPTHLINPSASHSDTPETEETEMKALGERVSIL
# TTBK2, sequence (Q6IQ55 whole entry): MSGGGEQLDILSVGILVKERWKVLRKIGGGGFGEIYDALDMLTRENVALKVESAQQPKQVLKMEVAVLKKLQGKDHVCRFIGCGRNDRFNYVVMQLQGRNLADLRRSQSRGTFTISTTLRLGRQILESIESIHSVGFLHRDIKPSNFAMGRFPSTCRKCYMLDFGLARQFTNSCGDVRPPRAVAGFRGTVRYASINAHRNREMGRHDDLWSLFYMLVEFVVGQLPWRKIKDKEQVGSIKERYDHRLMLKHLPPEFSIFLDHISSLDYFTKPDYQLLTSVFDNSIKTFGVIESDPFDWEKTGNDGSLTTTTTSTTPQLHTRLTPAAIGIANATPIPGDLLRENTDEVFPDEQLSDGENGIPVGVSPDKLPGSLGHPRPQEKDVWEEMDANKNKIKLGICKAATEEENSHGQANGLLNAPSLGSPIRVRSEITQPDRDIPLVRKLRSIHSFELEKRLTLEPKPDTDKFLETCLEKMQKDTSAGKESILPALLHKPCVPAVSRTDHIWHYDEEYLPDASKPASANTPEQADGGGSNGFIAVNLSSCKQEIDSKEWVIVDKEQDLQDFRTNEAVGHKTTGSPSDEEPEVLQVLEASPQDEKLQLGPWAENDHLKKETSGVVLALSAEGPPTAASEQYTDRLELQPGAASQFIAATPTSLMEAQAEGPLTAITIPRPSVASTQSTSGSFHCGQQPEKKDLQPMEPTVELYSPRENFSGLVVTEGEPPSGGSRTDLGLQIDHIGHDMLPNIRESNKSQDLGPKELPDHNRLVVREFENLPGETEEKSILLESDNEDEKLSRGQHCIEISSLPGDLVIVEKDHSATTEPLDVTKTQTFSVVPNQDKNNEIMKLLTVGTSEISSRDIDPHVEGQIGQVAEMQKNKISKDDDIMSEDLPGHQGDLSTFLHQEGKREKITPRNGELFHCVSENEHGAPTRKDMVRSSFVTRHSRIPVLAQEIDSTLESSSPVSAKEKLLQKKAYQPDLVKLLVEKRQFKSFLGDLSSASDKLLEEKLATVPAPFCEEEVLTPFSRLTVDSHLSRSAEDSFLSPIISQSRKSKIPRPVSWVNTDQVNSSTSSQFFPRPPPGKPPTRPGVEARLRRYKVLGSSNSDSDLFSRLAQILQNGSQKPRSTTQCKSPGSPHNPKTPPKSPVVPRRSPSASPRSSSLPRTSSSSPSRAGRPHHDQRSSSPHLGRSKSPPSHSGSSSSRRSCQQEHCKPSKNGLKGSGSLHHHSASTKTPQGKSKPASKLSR
# NUAK1, sequence (O60285 whole entry): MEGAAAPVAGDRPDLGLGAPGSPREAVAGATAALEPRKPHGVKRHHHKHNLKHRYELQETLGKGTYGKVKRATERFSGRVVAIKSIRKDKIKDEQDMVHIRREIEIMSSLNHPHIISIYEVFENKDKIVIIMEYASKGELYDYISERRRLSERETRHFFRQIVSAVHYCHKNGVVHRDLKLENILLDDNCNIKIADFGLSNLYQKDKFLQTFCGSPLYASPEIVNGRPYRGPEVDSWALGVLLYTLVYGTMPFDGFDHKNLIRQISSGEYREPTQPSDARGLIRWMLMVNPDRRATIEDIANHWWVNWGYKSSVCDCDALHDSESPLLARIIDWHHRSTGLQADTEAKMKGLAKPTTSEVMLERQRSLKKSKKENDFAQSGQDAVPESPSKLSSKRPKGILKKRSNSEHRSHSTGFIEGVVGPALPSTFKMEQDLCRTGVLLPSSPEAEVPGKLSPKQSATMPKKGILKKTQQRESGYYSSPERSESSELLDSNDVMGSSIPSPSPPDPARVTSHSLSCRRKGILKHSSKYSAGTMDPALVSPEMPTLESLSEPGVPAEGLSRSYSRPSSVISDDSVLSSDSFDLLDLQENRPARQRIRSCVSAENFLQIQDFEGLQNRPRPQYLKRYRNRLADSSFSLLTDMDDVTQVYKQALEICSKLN
compound,measurement,setting,value
"CSc1nc2ccc3nc(NC(=O)c4ccco4)sc3c2s1 [5E4, N-[7-(methylsulfanyl)[1,3]thiazolo[4,5-g][1,3]benzothiazol-2-yl]-2-furamide]",RSK1 activity in kinase profiling,RSK1,92
same,IKKb activity in kinase profiling,IKKb,90
same,ULK1 activity in kinase profiling,ULK1,127
same,MARK4 activity in kinase profiling,MARK4,87
same,SYK activity in kinase profiling,SYK,102
same,MARK1 activity in kinase profiling,MARK1,107
same,PINK activity in kinase profiling,PINK,118
same,BTK activity in kinase profiling,BTK,105
same,MAPKAP-K3 activity in kinase profiling,MAPKAP-K3,86
same,PAK5 activity in kinase profiling,PAK5,81
same,TBK1 activity in kinase profiling,TBK1,83
same,SGK1 activity in kinase profiling,SGK1,88
same,ERK8 activity in kinase profiling,ERK8,83
same,PRAK activity in kinase profiling,PRAK,85
same,MLK1 activity in kinase profiling,MLK1,25
same,EPH-A2 activity in kinase profiling,EPH-A2,162
same,EPH-B1 activity in kinase profiling,EPH-B1,93
same,JAK2 activity in kinase profiling,JAK2,105
same,TSSK1 activity in kinase profiling,TSSK1,81
same,PKCa activity in kinase profiling,PKCa,81
same,DAPK1 activity in kinase profiling,DAPK1,76
same,NUAK1 activity in kinase profiling,NUAK1,82
same,HIPK1 activity in kinase profiling,HIPK1,25
same,TTBK2 activity in kinase profiling,TTBK2,103
same,CLK2 activity in kinase profiling,CLK2,3
same,inhibition at 1 µM,CLK2,97%
same,STK33 activity in kinase profiling,STK33,110
same,PKD1 activity in kinase profiling,PKD1,98
same,PIM2 activity in kinase profiling,PIM2,71
same,MSK1 activity in kinase profiling,MSK1,109
same,IGF-1R activity in kinase profiling,IGF-1R,117
same,JNK2 activity in kinase profiling,JNK2,107
same,SIK2 activity in kinase profiling,SIK2,94
same,EIF2AK3 activity in kinase profiling,EIF2AK3,84
same,CK1δ activity in kinase profiling,CK1δ,94
same,MNK2 activity in kinase profiling,MNK2,88
same,Aurora A activity in kinase profiling,Aurora A,107
same,TrkA activity in kinase profiling,TrkA,90
same,S6K1 activity in kinase profiling,S6K1,80
same,EPH-B2 activity in kinase profiling,EPH-B2,94
same,EF2K activity in kinase profiling,EF2K,79
same,PKCz activity in kinase profiling,PKCz,103
same,PAK6 activity in kinase profiling,PAK6,104
"Cc1nc2ccc3sc(NC(=O)c4ccc5ncsc5c4)nc3c2s1 [3A5, N-(2-methyl[1,3]thiazolo[5,4-e][1,3]benzothiazol-7-yl)-1,3-benzothiazole-6-carboxamide]",RSK1 activity in kinase profiling,RSK1,83
same,IKKb activity in kinase profiling,IKKb,85
same,ULK1 activity in kinase profiling,ULK1,138
same,MARK4 activity in kinase profiling,MARK4,80
same,SYK activity in kinase profiling,SYK,99
same,MARK1 activity in kinase profiling,MARK1,103
same,PINK activity in kinase profiling,PINK,115
same,BTK activity in kinase profiling,BTK,106
same,MAPKAP-K3 activity in kinase profiling,MAPKAP-K3,81
same,PAK5 activity in kinase profiling,PAK5,75
same,TBK1 activity in kinase profiling,TBK1,83
same,SGK1 activity in kinase profiling,SGK1,85
same,ERK8 activity in kinase profiling,ERK8,82
same,PRAK activity in kinase profiling,PRAK,89
same,MLK1 activity in kinase profiling,MLK1,73
same,EPH-A2 activity in kinase profiling,EPH-A2,134
same,EPH-B1 activity in kinase profiling,EPH-B1,101
same,JAK2 activity in kinase profiling,JAK2,112
same,TSSK1 activity in kinase profiling,TSSK1,81
same,PKCa activity in kinase profiling,PKCa,100
same,DAPK1 activity in kinase profiling,DAPK1,73
same,NUAK1 activity in kinase profiling,NUAK1,73
same,HIPK1 activity in kinase profiling,HIPK1,105
same,TTBK2 activity in kinase profiling,TTBK2,108
same,CLK2 activity in kinase profiling,CLK2,3.39
same,inhibition at 1 µM,CLK2,97%
same,STK33 activity in kinase profiling,STK33,88
same,PKD1 activity in kinase profiling,PKD1,96
same,PIM2 activity in kinase profiling,PIM2,78
same,MSK1 activity in kinase profiling,MSK1,86
same,IGF-1R activity in kinase profiling,IGF-1R,123
same,JNK2 activity in kinase profiling,JNK2,100
same,SIK2 activity in kinase profiling,SIK2,91
same,EIF2AK3 activity in kinase profiling,EIF2AK3,119
same,CK1δ activity in kinase profiling,CK1δ,34
same,MNK2 activity in kinase profiling,MNK2,86
same,Aurora A activity in kinase profiling,Aurora A,127
same,TrkA activity in kinase profiling,TrkA,93
same,S6K1 activity in kinase profiling,S6K1,72
same,EPH-B2 activity in kinase profiling,EPH-B2,90
same,EF2K activity in kinase profiling,EF2K,71
same,PKCz activity in kinase profiling,PKCz,115
same,PAK6 activity in kinase profiling,PAK6,96
